Assay results reported in US20120042398A1, “COMPOSITIONS FOR LABELING AND IDENTIFYING AUTOPHAGOSOMES AND METHODS FOR MAKING AND USING THEM” (SAN DIEGO STATE UNIVERSITY (SDSU) FOUNDATION, priority 2008, published 2012).
Blank lines part the entries; values can stand above or below the molecule they belong to.

Key:
[1] = test system: autophagic vesicles (AV) in fat body tissue; test: Staining of fresh Drosophila larval fat body tissue (AV labeling); format: cell-based; conditions: 10 μM dye, 10 min
Procedure: Staining of Drosophila Tissues. To perform a rapid first-pass examination of the compounds ability to stain AV we examined fat body tissues from wandering 3rd instar Drosophila larvae. 1 mM DMSO stock solutions were prepared for each compound and stored at −20° C. Fat body tissue from wild type fly larvae were dissected from the surrounding cuticle and organs, and placed in 1 ml iced PBS solution. Tissues were immediately stained for 10 min, in a final 10 μM concentration for each dye. Samples were rinsed twice with 1×PBS, mounted with VECTASHIELD™ (Vector Laboratories, Inc, Burlingame, Calif.) and immediately imaged using a scanning confocal fluorescent microscope (Leica, FITC channel). As a positive control, fly tissues (3rd instar) were also stained with BODIPY-TexasRed-cadaverine (Invitrogen, red).

[2] = test system: HL-1 cells; test: High-throughput cadaverine plate-reader assay of autophagy (ALEXAFLUOR488-cadaverine fluorescence); format: cell-based, Mouse; conditions: FIG. 1
Procedure: For 24 Well Plates: • Plate 75,000 cells per well • Wait for cells to achieve approximately 80% confluence (approximately 1 day) • Treat cells (3 h 30 min starvation, 3 mL of medium) • Rinse cells with PBS (1 ml) • Incubate cells with probe for 10 minutes at 37° C. • Wash cells four times with PBS (1 mL) • Lyse cells by incubating in 10 mM Tris-Cl pH 8 containing 0.1% Triton X-100 for 20 minutes (500 uL) • Measure fluorescence in plate reader • Add ethidium bromide to a final concentration of 0.2 mM and measure fluorescence (exc=530 nm; em=590 nm) • Normalize results to the number of cells (ethidium bromide reading)
Probes: • ALEXAFLUOR488™ cadaverine (A30676, Invitrogen, Carlsbad, Calif.) • Final concentration 25 uM, exc=493 nm; em=516 nm. • BODIPY TR™ cadaverine (D6251, Invitrogen, Carlsbad, Calif.) • Final concentration 125 nM, exc=588 nm; em=616 nm.

[3] = test system: autophagic vesicles in Atg1-/- fat body tissue; test: FITC-TG / LYSOTRACKER staining of Atg1-/- mutant fat body tissue; format: cell-based, Drosophila; conditions: starvation and hormone-dependent induction
Procedure: These studies indicates the FITC-dyes highlight a population of vesicles that are distinct from LYSOTRACKER™ and could be used to study the early in vivo formation, maturation and fusion events of AV within cells. To further confirm the specificity of the FITC-TG AV staining, fat body tissue was prepared from Atg1−/− larvae and compared with wild type controls. Signaling of the Atg1 protein kinase is essential for pathway induction and AV formation, see e.g., (21, 57). In Drosophila loss-of-function mutations in this gene result in late pupal lethality but have a minor impairment on early development, thus providing sufficient material for imaging studies. […] This staining pattern is consistent with lysosomes maturing from the endosomal pathway but AV failing to be formed under normal physiological conditions. FIG. 8 illustrates images of stained tissues from: Fed (left column images), fasted (middle column images) and hormone-induced (“3rd instar” right column images) autophagy profiles in wildtype (upper row images) and Atg1−/− mutant (lower row images) cells. Fat body tissue from larvae that were fed, fasted or undergoing hormone-induced autophagy were collected and stained with LYSOTRACKER™ (red) and the exemplary FITC-TG (green). […] While LYSOTRACKER™ puncta are detected (red) in these Atg1^−/− mutant tissues, the exemplary FITC-TG dye fails to stain autophagosomes or autolysosomes.

[4] = test system: autophagic vesicles (AV); test: MDC staining of AV in cell or tissue preparations; format: cell-based
Description: Initial synthesis of autophagic specific dyes of this invention was based on MDC. […] In alternative embodiments, dyes used in compositions of this invention are vesicle selective, have multiple fluorescent excitation/emission spectra and can be used for several imaging applications. Thus, the new dyes of this invention will greatly benefit autophagy research.

[5] = Fluorophore properties (pKa, pH stability, photostability, storage stability); format: physicochemical; conditions: for photostability / photobleaching: normal fluorescence exposure
[6] = test system: mCherry-LC3 puncta (autophagosomes) in heart; test: MDC labeling of cardiac tissue in mCherry-LC3 mice; format: in vivo; conditions: MDC 1.5 mg/kg i.p. 1 hr before sacrifice, heart sections
Procedure: To examine its labeling profile in cardiac tissues, mCherry-LC3 mice were injected with MDC (1.5 mg/kg i.p.) 1 hr before being sacrificed, e.g., see Iwai-Kanai (2008) supra, Yitzhaki (2009) Basic Res. Cardiol. 104:157-167. Hearts were collected and frozen tissues sections prepared for imaging. Under conditions where autophagy is activated and mCherry-LC3 puncta formed, MDC-labeled structures were similarly up regulated, see FIG. 4, and see e.g. Iwai-Kanai (2008) supra. MDC labeled a subset of mCherry-LC3-positive structures, presumably fused autolysosome vesicles.
FIG. 4 illustrates three images, including mCherry and MDC labeling of vesicles. mCherry-LC3 expressing mice were treated with rapamycin and hearts prepared for fluorescent imaging. […] The right image of FIG. 4 is a merge of the mCherry-LC3 and MDC images.

[7] = cited from earlier work
[8] = test system: autophagosomes in heart tissue; test: Heart perfusion with BODIPY-TR-cadaverine, dye incorporation into autophagosomes read in plate reader; conditions: perfused hearts, FIG. 2
Procedure: 1) Mince 1-5 mm^3 tissue sample in 1-2 mL homogenization buffer in 35 mm dish 2) Polytron at ½ speed, 5 sec, on ice in 15 mL round bottom polypropylene tube 3) Spin out nuclei and heavy membranes @ 1000 g, 5 min, 4° C. in 15 mL Falcon tube 4) Move post-nuclear supernatant into 1.5 mL Eppendorf tube 5) Add MDC (or Cadaverine 488) to final concentration of 25 μM 6) Incubate on ice 10 min protected from light 7) Spin sample 20,000×g, 20 min, 4° C. 8) Aspirate supernatant and rinse off pellet with 1 mL cold resuspension buffer 2×'s 9) Resuspend pellet in 350 μL resuspension buffer until mixed evenly 10) Add 100 μL per well in triplicate to black 96-well plate 11) Read on Fluorescence plate reader @ excitation/emission 495 nm/519 nm 12) Use remaining sample to run Bradford assay to quantify protein concentration.
The hearts were perfused with BODIPY-TR™-cadaverine followed by washout, then homogenized and fluorescence read in plate reader. […] FIG. 2 right image is a graph illustrating quantitation of dye incorporation into autophagosomes, with the left column graphically quantitating the upper left image's fluorescence and the right column graphically quantitating the lower left image's (the Tat-Atg5(K130R)-inhibited) fluorescence.

Compound: Cl.NCCCCCNC(=O)COc1ccc(C2=[N+]3C(=Cc4ccc(-c5cccs5)n4[B-]3(F)F)C=C2)cc1 [BODIPY-cadaverine, 5-(((4-(4,4-difluoro-5-(2-thienyl)-4-bora-3a,4a-diaza-s-indacene-3-yl)phenoxy)acetyl)amino)pentylamine, hydrochloride]
staining of intracellular vesicles / cytoplasmic puncta in fresh tissue [1]: robust staining pattern

Compound: CO/C1=C\C(C)=C\[C@@H](C)[C@@H](O)[C@@H](C)C/C(C)=C/C=C/[C@H](OC)[C@@H]([C@@H](C)[C@@H](O)[C@H](C)[C@@]2(O)C[C@@H](O)[C@H](C)[C@@H](C(C)C)O2)OC1=O [Bafilomycin A1]
effect on starvation-increased autophagy (relative ALEXAFLUOR488-cadaverine fluorescence normalized to cell number) [2]: partially blocked

Compound: CN(C)CCNC(=O)CCc1ccc2n1[B-](F)(F)[N+]1=C(c3ccc[nH]3)C=CC1=C2 [LYSOTRACKER™]
vesicle staining in Atg1-/- flies [3]: some LYSOTRACKER™ positive staining

stability during storage [5]: stability issues during storage
photostability / photobleaching [5]: significant photobleaching
Compound: CN(C)c1cccc2c(S(=O)(=O)NCCCCCN)cccc12 [MDC, monodansylcadaverine]
usability on fixed samples [4]: cannot be used on fixed samples
co-localization of MDC labeling with mCherry-LC3 puncta [6]: excellent co-localization

photostability / photobleaching [5]: excellent photostability
Compound: O=C1OC2(c3cc(F)c(O)cc3Oc3cc(O)c(F)cc32)c2ccccc21 [Oregon Green 488, Difluoro-fluorescein]
pKa [7]: 4.7

Compound: Nc1ccc(S(=O)(=O)Nc2ccnn2-c2ccccc2)cc1 [Sulfaphenazole]
effect on autophagy (BODIPY-TR-cadaverine incorporation into autophagosomes) [8]: potent inducer of autophagy

Compound: CCN(CC)CCCC(C)Nc1ccnc2cc(Cl)ccc12 (centres unmarked) [chloroquine]
effect on starvation-increased autophagy (relative ALEXAFLUOR488-cadaverine fluorescence normalized to cell number) [2]: partially blocked
